Measured values reported in patent US20070082870A1, “Pharmaceutical formulations of cyclodextrins and antifungal azole compounds” (priority 2005, published 2007).
Converted amounts (≈) assume the structure as drawn. One block for each molecule: values may come before it.

Columns and labels:
[1] = Equilibrium solubility of ketoconazole in water and buffers at 10 wt % HBenBCD; type: physicochemical
Procedure: The following is a typical procedure for determining the solubility of a drug in a given solvent. To each well of a 2 mL 96-well polypropylene mixing plate was added excess drug (ca. 5-10 mg). […] The cavities on the loading plate were arranged so that they corresponded to the individual wells of the 96-well mixing plate. A line of drug was placed at one end of the loading plate and a glass plate was used to distribute the drug into each cavity. The 96-well mixing plate was placed on the loading plate then inverted and tapped so that the drug dropped into the appropriate well of the mixing plate.
(§1) To each well of the pre-loaded 96-well mixing plate was added 300-500 μL of water or buffer (blanks with no CD) or the appropriate CD solution. Typically, each determination was in triplicate. The blanks were used to determine the intrinsic solubility (So) of drug in that solution and the well containing the CD solutions were used to determine the solubility of drug due to CD (Sw). After addition of the stock solutions, the plate was sealed using aluminum foil with a non-volatile adhesive on one surface. The plate was placed on a rotary shaking plate (Helidolph Titramax 1000) and the plate was shaken at 800-1200 rpm at 23° C.±2° for 48-72 h. During the mixing period, the plate was inspected to insure that each well contained undissolved, excess drug. Additional drug was added if necessary.
(§2) Following the mixing period, the solutions in each well were transferred to the corresponding wells of a 96-well 2 mL multiscreen filter plate using a multi-channel pipette. The bottom of each well was a hydrophilic membrane (Millipore Corporation). The filter plate was placed on top of a vacuum manifold and the solutions were filtered at ca. 20 mm Hg into the corresponding wells of a 2 mL storage plate. The duration of the filtration period was typically no more than 60 seconds. The storage plate was then sealed with a silicon mat and samples were removed for analysis as appropriate.
The drug content in each well can be determined by a number of methods. Ultraviolet spectroscopy (UV) or high pressure liquid chromatography (HPLC) is preferred. In the present example, UV spectroscopy was used. […] Measurements were made using a SpectraMax Plus 384 Molecular Devices multi-well plate reader. Absorbance was converted to drug concentration using the appropriate absorbtivity for the drug. The drug concentrations were then exported to the appropriate software package for final analysis.
The general protocol described in Example 1 was utilized to determine the equilibrium solubility of ketoconazole in water and buffers at 10 wt % HBenBCD concentration.

physchem = type: physicochemical; details: for solubility: 23 °C, thermodynamic from solid
Procedure: (§3) The following is a typical procedure for determining the solubility of a drug in a given solvent. To each well of a 2 mL 96-well polypropylene mixing plate was added excess drug (ca. 5-10 mg). The drug was typically added by using a metal loading plate having cavities that will hold an approximate predetermined amount of drug. The cavities on the loading plate were arranged so that they corresponded to the individual wells of the 96-well mixing plate. A line of drug was placed at one end of the loading plate and a glass plate was used to distribute the drug into each cavity. The 96-well mixing plate was placed on the loading plate then inverted and tapped so that the drug dropped into the appropriate well of the mixing plate.
as §1, §2
(§4) The drug content in each well can be determined by a number of methods. Ultraviolet spectroscopy (UV) or high pressure liquid chromatography (HPLC) is preferred. In the present example, UV spectroscopy was used. Typically, 10-20 μL of drug solution was transferred to the corresponding well of a 96-well measurement plate (UV-STAR plates from Greiner with a spectral range of 190-400 nm) and diluted with 1/1 water/ethanol so that the absorbance was in the linear response range. Measurements were made using a SpectraMax Plus 384 Molecular Devices multi-well plate reader. Absorbance was converted to drug concentration using the appropriate absorbtivity for the drug. The drug concentrations were then exported to the appropriate software package for final analysis.
The general protocol described in Example 1 was utilized to determine the equilibrium solubility of voriconazole in water and buffers at 10 wt % HBenBCD concentration.

[2] = type: physicochemical; details: pH 3
Procedure: as §3
(§5) To each well of the pre-loaded 96-well mixing plate was added 300-500 μL of water or buffer (blanks with no CD) or the appropriate CD solution. […]
as §4, with “Ultraviolet spectroscopy (UV) or high pressure liquid chromatography (HPLC) is preferred. In the present example, UV spectroscopy was used.” left out, “The drug concentrations were then exported to the appropriate software package for final analysis.” left out

[3] = Equilibrium solubility of clotrimazole in water, 0 to ca. 25 wt % cyclodextrin; type: physicochemical
Procedure: as §3, §5
as §4, with “Ultraviolet spectroscopy (UV) or high pressure liquid chromatography (HPLC) is preferred. In the present example, UV spectroscopy was used.” left out, “The drug concentrations were then exported to the appropriate software package for final analysis.” left out

[4] = Equilibrium solubility of itraconazole in water and buffers at 10 wt % cyclodextrin; type: physicochemical; details: water
Procedure: Stock solutions of cyclodextrins were prepared by dissolving an accurately weighed amount of previously dried cyclodextrin in water or in buffer to give a final cyclodextrin concentration of 10 wt %. In this example, the cyclodextrins were HBenBCD, HPBCD, and SBEBCD. The buffers were 0.05 M pH3 phosphate, 0.05 M pH 3 citrate, and 0.05 M pH 4.8 acetate.
as §3, §1, §2, §4

[5] = Equilibrium solubility of itraconazole in water and pH 3 phosphate buffer, 0 to 25 wt % cyclodextrin; type: physicochemical
Procedure: as §3, §5
as §4, with “Ultraviolet spectroscopy (UV) or high pressure liquid chromatography (HPLC) is preferred. In the present example, UV spectroscopy was used.” left out, “The drug concentrations were then exported to the appropriate software package for final analysis.” left out

Sw/So ([1]; pH 3 D,L-tartrate): 2.7 | Sw/So ([1]; pH 3 D-tartrate): 3.2 | Sw/So ([1]; pH 3 L-tartrate): 2.8 | Sw/So ([1]; pH 3 citrate): 3.3 | Sw/So ([1]; pH 3 phosphate): 4.3 | Sw/So ([1]; pH 4.8 acetate): 95.5 | Sw/So ([1]; pH 7.3 phosphate): 548.9 | Sw/So ([1]; water): 600.4
Molecule: CC(=O)N1CCN(c2ccc(OC[C@H]3CO[C@](Cn4ccnc4)(c4ccc(Cl)cc4Cl)O3)cc2)CC1 (racemic) [ketoconazole]

Sw/So (physchem): 9.8 | solubility (physchem; pH 1.2, aqueous with cosolvent or surfactant or cyclodextrin, Sw (solubility with CD)): 10.2 mg/mL (≈ 29.2 mM) | solubility (physchem; pH 1.2, simulated gastric fluid, So (intrinsic solubility)): 3.2 mg/mL (≈ 9.16 mM) | Sw/So (physchem; pH 1.2): 3.2 | Sw/So (physchem; pH 7.3): 9.6 | more voriconazole solubilized by HBenBCD than SBEBCD [2]: 25%
Molecule: C[C@@H](c1ncncc1F)[C@](O)(Cn1cncn1)c1ccc(F)cc1F (single isomer, unassigned) [voriconazole]

Sw/So for HBenBCD, fold greater than that for HPBCD ([3]; ca. 25 wt % CD): 2.4 X | Sw/So ([3]; ca. 25 wt % HBenBCD): 12.3
Molecule: Clc1ccccc1C(c1ccccc1)(c1ccccc1)n1ccnc1 [clotrimazole]

Molecule: itraconazole
Sw/So ([4]; 10 wt % HBenBCD): 17.2 | solubility of itraconazole due to CD (Sw) ([4]; 10 wt % HBenBCD): 0.515 ng/mL | Sw/So ([4]; 10 wt % HPBCD): 3.8 | Sw/So ([4]; 10 wt % SBEBCD): 4.2 | intrinsic solubility (So) of itraconazole ([4]; no cyclodextrin): 0.03 ng/mL | Sw/So for HBenBCD, fold greater than that for HPBCD ([5]; ca. 25 wt % CD): 4 X | Sw/So ([5]; ca. 25 wt % HBenBCD): 132
